Results published in patent US6709649B1, “RANTES derived peptides with anti-HIV activity” (Fondazione Centro San Raffaele Del Monte Tabor, priority 1998, dated 2004).

test system: CCR5-dependent HIV-1BaL strain; experiment: "cell-free" acute infection test (growth of HIV-1 in pre-activated primary mononuclear cells, p24 antigen); format: cell-based; settings: at the tested doses
Source text: Some peptides of the invention have been tested to verify their inhibitory activity against HIV virus-1. Two different tests have been used: the “cell-free ” acute infection test and the test of inhibition of the formation of syncitia. The first test evaluates the growth of HIV-1 in primary mononuclear cells pre-activated in vitro and is closer to the natural model of infection. On the other hand, the test of syncitia inhibition evaluates the capability of an inhibitor to inhibit the membrane fusion induced by HIV and it makes use of cells of a continuous line T CD4+ (PM1) chronically infected with an HIV-1 CCR5-dependent (PM1BaL) strain. In both tests, cells were pre-treated with the peptides before exposition to the virus or to 5 the infected cells. Scalar concentrations for each peptide have been tested to calculate the 50% inhibitory dose (ID50), i.e. the dose capable of reducing by 50% the values of the untreated controls. The ID50 values (expressed as micromolar values) of different peptides in the acute infection test are illustrated in the following Table:
The ability of the mutants obtained as described in Example 2, to inhibit the infection by the prototypic macrophage-tropic HIV-1BaL strain, was evaluated in primary cultures of activated mononuclear cells from peripheral blood. The procedure used to infect PBL and to evaluate the production of p24 antigen is described in literature (Scarlatti et al., Nat. Med. November 3:11 1259-65, 1997).

Row | Substance | capability to inhibit the acute infection (in words)
1 | Ace-FAYIARPLPRAHIKEYFY-NH2 (Ac-FAYIARPLPRAHIKEYFY-NH2) [Peptide 1] | marked increase in the capability to, inhibit the acute infection
2 | Ace-CFAYIARPLPRAHIKEYFY-NH2 [Peptide 2] | marked increase in the capability to, inhibit the acute infection
3 | YFYTSGKCSNPA [RANTES peptide used as control] | no antiviral activity
4 | SGKCSNPAVVFV [RANTES peptide used as control] | no antiviral activity
5 | YTSGKCSNPAVV [B, RANTES peptide used as control] | no antiviral activity

test system: HIV-1 CCR5-dependent (PM1BaL) strain; experiment: test of inhibition of the formation of syncitia (PM1 cells chronically infected with HIV-1BaL); format: cell-based; settings: PM1 line infected by HIV-1BaL
Source text: Some peptides of the invention have been tested to verify their inhibitory activity against HIV virus-1. Two different tests have been used: the “cell-free ” acute infection test and the test of inhibition of the formation of syncitia. The first test evaluates the growth of HIV-1 in primary mononuclear cells pre-activated in vitro and is closer to the natural model of infection. On the other hand, the test of syncitia inhibition evaluates the capability of an inhibitor to inhibit the membrane fusion induced by HIV and it makes use of cells of a continuous line T CD4+ (PM1) chronically infected with an HIV-1 CCR5-dependent (PM1BaL) strain. In both tests, cells were pre-treated with the peptides before exposition to the virus or to 5 the infected cells. Scalar concentrations for each peptide have been tested to calculate the 50% inhibitory dose (ID50), i.e. the dose capable of reducing by 50% the values of the untreated controls. The ID50 values (expressed as micromolar values) of different peptides in the acute infection test are illustrated in the following Table: […]

Row | Substance | capability to inhibit the formation of syncitia (in words)
6 | Ace-FAYIARPLPRAHIKEYFY-NH2 (Ac-FAYIARPLPRAHIKEYFY-NH2) [Peptide 1] | increased capability to inhibit the formation of syncitia
7 | Ace-CFAYIARPLPRAHIKEYFY-NH2 [Peptide 2] | increased capability to inhibit the formation of syncitia
